Experiment [1] concerns diet-induced obese, hyperglycemic mice. Particulars: 10 mg/kg body weight for 13 wk; cited from earlier work.
Experiment [2] concerns diet-induced obese, hyperglycemic mice (C57BL/6J). The experiment is described as follows: Acute hypoglycemic study in diet-induced obese mice (fasting blood glucose). Particulars: 300 mg/kg oral. It counts as in vivo. How it is done: An acute hypoglycemic study in diet-induced obese mice was performed as described previously (Cheng et al., Food Chem 135: 2994-3002, 2012, incorporated herein by reference). Briefly, five-week-old male C57Bl/6J mice (Jackson Labs), acclimated for 1 week with ad libitum access to chow (Purina, No. 5014) and water, and maintained on a very high-fat diet (VHFD) containing 60% fat-derived calories (D12492; Research Diets) for an additional 15 weeks to induce obesity, insulin resistance, and hyperglycemia. Food intake and body weight were monitored weekly. Following a 4-hour fasting period, fasting blood glucose (FBG) was measured using an AlphaTRAK® handheld glucometer (Abbott Labs, Inc.), and mice were randomly divided into FBG-balanced experimental groups.
Quinoa leachate (QL) was formulated in 70% Labrasol® (Gattefossé Corp., Paramus, N.J.). The biological activity of QL was tested using an oral ingestion of 0.25 ml per 50 g body weight of vehicle (70% Labrasol®) or QL (250 and 500 mg/kg) (n=7). Metformin® (300 mg/kg, dissolved in water) was administered as a positive control. FBG was reassessed 4 hours post-treatment. Mean FBG values before and after treatment were calculated for each group and compared using paired t-tests in Microsoft Excel. Additionally, final % FBG (final FBG/initial FBG×100) of each mouse was calculated 4 hours post-treatment. […]

Consider `CC(C)(O)CC[C@@H](O)[C@](C)(O)[C@H]1CC[C@@]2(O)C3=CC(=O)[C@@H]4C[C@@H](O)[C@@H](O)C[C@]4(C)[C@H]3CC[C@]12C` [20-HE, 20-hydroxyecdysone], for which, in experiment [1], the blood glucose levels result was “significantly lowered blood glucose levels” and the “reduction of adiposity compared with control” value is given as 41%.
Take `CN(C)C(=N)N=C(N)N` [Metformin]: the “hypoglycemic effect compared with control (1-way ANOVA, Dunnett's post hoc test)” value in experiment [2] (4 hours) is on record as “significant hypoglycemic effects compared with control”. Also, in experiment [2] (positive control), the “FBG levels 4 hours after oral administration versus before treatment (paired t-test)” value is given as “significantly lowered FBG levels”.
